Source: patent US5712139A, “Pyranose oxidase, pyranose oxidase gene, novel recombinant DNA and process for producing pyranose oxidase” (Kikkoman Corporation, priority 1994, dated 1998)

What follows are compounds tested against T1, pyranose oxidase (Trametes versicolor, UniProt P79076) (assay: Substrate specificity of pyranose oxidase (hydrogen peroxide / 4-aminoantipyrine-phenol-peroxidase colour reaction)). Details: pH 7.
T1 construct: purified, about 290 kDa by gel filtration; mature N-terminus […] in fungal enzyme; pPRME18 is the alternative N-terminally shortened construct
Type: biochemical, Coriolus versicolor
Protocol: 3.0 ml of an enzyme-containing solution consisting of 1.0 ml of 0.1M Tris-HC1 buffer, pH 7.0, 0.2 ml of a color-producing solution (prepared by adding 2000 U peroxidase to 100 ml of 0.1 M Tris-HCl buffer, pH 7.0 containing 10 mM 4-aminoantipyrine and 10 mM phenol), 0.1 ml of 1M glucose, 0.1 ml pyranose oxidase solution and 1.6 ml water was allowed to react at 37° C., and the increase in absorbance at 500 nm was determined with U2000 double beam spectrophotometer (manufactured by Hitachi, Ltd.).
One unit of enzyme activity is defined as the amount of enzyme which causes formation of 1 μmol of hydrogen peroxide per minute at 37° C., pH 7.0. The calculation of […] was carried out using the following equation assuming that the molecular extinction coefficient of the quinoimine pigment formed under the above conditions is 5.3 x 10^3 : Enzyme activity: (ΔA500 /5.3)×(3.0/0.1)×dilution degree of enzyme.
For examination of the substrate specificity of the present enzyme, each of sugar solutions (0.1 M) shown in Table 1 was used in place of glucose in the method described in (1) above. 2.5 units of pyranose oxidase were added to the reaction solution. The activity for each substrate is shown in relative activity that is expressed relative to that (100%) for the substrate glucose.

| Compound | relative activity (%) |
| --- | --- |
| galactose | 3.2 |
| mannose | 0.2 |

Same assay, conditions: pH 7, read-out: relative activity (%)

| Compound | activity at 3300 µM [%] |
| --- | --- |
| O=C(CO)[C@@H](O)[C@H](O)[C@@H](O)CO [L-sorbose] | 9 |

Same assay, conditions: substrate 3.3 mM; relative to glucose = 100%; 2.5 units of pyranose oxidase; 37° C., pH 7.0

| Compound | relative activity (%) |
| --- | --- |
| O=C(O)[C@H](O)[C@@H](O)[C@H](O)[C@H](O)CO [gluconic acid] | 0.4 |
| OC[C@H]1O[C@H](O[C@H]2[C@H](O)[C@@H](O)[C@H](O)O[C@@H]2CO)[C@H](O)[C@@H](O)[C@@H]1O [maltose] | 1.1 |
| OC[C@H]1O[C@H](O[C@H]2O[C@H](CO)[C@@H](O)[C@H](O)[C@H]2O)[C@H](O)[C@@H](O)[C@@H]1O [trehalose] | 0.1 |

Same assay, conditions: substrate 3.3 mM; relative to glucose = 100%; 2.5 units of pyranose oxidase; 37° C., pH 7.0; read-out: relative activity (%)

| Compound | activity at 3300 µM [%] |
| --- | --- |
| OC[C@H]1OC[C@H](O)[C@@H](O)[C@@H]1O [1,5-anhydro-D-glucitol] | 14.2 |
| OC[C@H]1OC(O)C[C@@H](O)[C@@H]1O (stereo partly drawn) [2-deoxy-D-glycose] | 1.6 |
| O=C1O[C@H](CO)[C@@H](O)[C@H](O)[C@H]1O [D-gluconic acidδ lactone] | 0.4 |
| OC[C@@H](O)[C@@H](O)[C@H](O)[C@@H](O)CO [D-sorbitol] | 0 |
| OC1OC[C@@H](O)[C@H](O)[C@H]1O (stereo partly drawn) [D-xylose] | 6.5 |
| C[C@@H]1OC(O)[C@H](O)[C@H](O)[C@H]1O (stereo partly drawn) [L-rhamnose] | 0.1 |
| CC(=O)N[C@H]1C(O)O[C@H](CO)[C@@H](O)[C@@H]1O (stereo partly drawn) [N-acetyl-D-glucosamine] | 0 |
| OC[C@H]1O[C@H](OC[C@H]2O[C@H](O[C@]3(CO)O[C@H](CO)[C@@H](O)[C@@H]3O)[C@H](O)[C@@H](O)[C@@H]2O)[C@H](O)[C@@H](O)[C@H]1O [raffinose] | 0 |
| OC[C@H]1O[C@@](CO)(O[C@H]2O[C@H](CO)[C@@H](O)[C@H](O)[C@H]2O)[C@@H](O)[C@@H]1O [sucrose] | 0 |
| OC[C@@H](O)[C@H](O)[C@@H](O)CO [xylitol] | 0 |

Same assay, conditions: summary of Table 1

| Compound | substrate specificity in words |
| --- | --- |
| OC[C@H]1OC[C@H](O)[C@@H](O)[C@@H]1O [1,5-anhydro-D-glucitol] | acts on |
| OC1OC[C@@H](O)[C@H](O)[C@H]1O (stereo partly drawn) [D-xylose] | acts on |
| galactose | acts on |
